These results are taken from patent US10899774B2, “IRAK4 modulators” (Genentech, Inc., priority 2017, dated 2021).

Each structure is given as a SMILES string.

In this assay the target is human IRAK4 (Homo sapiens (Human), UniProt Q9NWZ3). Briefly: IRAK4 kinase inhibition, Transcreener fluorescence polarization (ADP detection). The class given is biochemical. Conditions: recombinant full-length His6-IRAK4; 1.25 nM IRAK4; 125 μM ATP; 90 min; ATP Km 642 μM. The method, then: Compounds were assayed for inhibition of human IRAK4 and IRAK1 catalytic activity using recombinant enzyme produced from insect cells. Full-length IRAK4 protein, carrying an N-terminal His6-Tag, was obtained from Life Technologies (Carlsbad, Calif., USA). The IRAK1 construct was produced internally and was comprised of IRAK1 residues Arg194 to Ser712, preceded by an NH2-terminal His6 tag and the coding sequence for glutathione-S-transferase.
Chain of human IRAK4 (Q9NWZ3 whole entry, the tested form may be a part): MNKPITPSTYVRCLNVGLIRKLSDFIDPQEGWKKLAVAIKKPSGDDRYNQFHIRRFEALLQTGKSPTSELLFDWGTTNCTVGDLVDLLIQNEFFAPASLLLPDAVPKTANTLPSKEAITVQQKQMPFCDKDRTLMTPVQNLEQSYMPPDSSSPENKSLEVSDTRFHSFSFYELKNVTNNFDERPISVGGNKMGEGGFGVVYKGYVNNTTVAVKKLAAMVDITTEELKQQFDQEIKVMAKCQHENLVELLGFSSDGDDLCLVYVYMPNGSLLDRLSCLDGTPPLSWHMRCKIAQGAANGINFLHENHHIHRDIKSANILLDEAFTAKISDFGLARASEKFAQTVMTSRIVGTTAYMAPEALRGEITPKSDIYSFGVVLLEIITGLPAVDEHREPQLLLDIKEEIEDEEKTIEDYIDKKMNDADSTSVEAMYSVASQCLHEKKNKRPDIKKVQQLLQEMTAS
Kinase activities were assayed using the Transcreener-Fluorecescence polarization platform (BelBrook Labs, Madison, Wis., USA) that measures amounts of the reaction product, ADP.
384 well assay plates spotted with compound received 4 μl of a 2× substrate (ATP+peptide) mix in reaction buffer, followed by 4 μl of 2× enzyme diluted in reaction buffer.
Turning to `C[C@H]1COCCN1c1nc(C(=O)Nc2cc3c(cc2N2CCOCC2)OC(C)(C)C3)co1` [Example 26, (S)-N-(2,2-Dimethyl-6-morpholino-2,3-dihydrobenzofuran-5-yl)-2-(3-methylmorpholino)oxazole-4-carboxamide], the Ki was determined as 35 nM.

For `CC1(C)Cc2cc(NC(=O)c3ccccn3)c(N3CCOCC3)cc2O1` [Example 27, N-(2,2-Dimethyl-6-morpholino-2,3-dihydrobenzofuran-5-yl)picolinamide], the Ki is 42 nM.

As for `CC1(C)Cc2cc(NC(=O)c3c[nH]c4cccnc34)c(N3CCOCC3)cc2O1` [Example 28, N-(2,2-Dimethyl-6-morpholino-3H-benzofuran-5-yl)-1H-pyrrolo[3,2-b]pyridine-3-carboxamide], the inhibition constant Ki turned out to be 470 nM.

For `Cc1ccc(-c2cc3c(cc2NC(=O)c2cnc(C)o2)CC(C)(C)O3)nc1` [Example 29, N-[2,2-Dimethyl-6-(5-methyl-2-pyridyl)-3H-benzofuran-5-yl]-2-methyl-oxazole-5-carboxamide], the Ki came to 230 nM.

With `CC1(C)Cc2cc(NC(=O)c3cccs3)c(N3CCOCC3)cc2O1` [Example 30, N-(2,2-Dimethyl-6-morpholino-2,3-dihydrobenzofuran-5-yl)thiophene-2-carboxamide], the Ki is 780 nM.

Regarding `Cc1ccc(C(=O)Nc2cc3c(cc2N2CCOCC2)OC(C)(C)C3)o1` [Example 31, N-(2,2-Dimethyl-6-morpholino-2,3-dihydrobenzofuran-5-yl)-5-methylfuran-2-carboxamide], the Ki was 23 nM.

For `CC1COCCN1c1nc(C(=O)Nc2cc3c(cc2N2CCOCC2)OC(C)(C)C3)cs1` (stereo not shown) [Example 32, N-(2,2-Dimethyl-6-morpholino-2,3-dihydrobenzofuran-5-yl)-2-(3-methylmorpholino)thiazole-4-carboxamide], the Ki is 19 nM.

Regarding `Cc1cn(-c2nc(C(=O)Nc3cc4c(cc3N3CCOCC3)OC(C)(C)C4)co2)cn1` [Example 33, N-(2,2-Dimethyl-6-morpholino-2,3-dihydrobenzofuran-5-yl)-2-(4-methyl-1H-imidazol-1-yl)oxazole-4-carboxamide], the inhibitory constant (Ki) was 3.7 nM.

Turning to `CC1(C)Cc2cc(NC(=O)c3coc(-c4ccncn4)n3)c(N3CCOCC3)cc2O1` [Example 34, N-(2,2-Dimethyl-6-morpholino-2,3-dihydrobenzofuran-5-yl)-2-(pyrimidin-4-yl)oxazole-4-carboxamide], the Ki came to 17 nM.

Consider `Cc1cc(-c2nc(C(=O)Nc3cc4c(cc3N3CCOCC3)OC(C)(C)C4)co2)ccn1` [Example 35, N-(2,2-Dimethyl-6-morpholino-2,3-dihydrobenzofuran-5-yl)-2-(2-methylpyridin-4-yl)oxazole-4-carboxamide], for which the Ki turned out to be 1.4 nM.

In the case of `CC1(C)Cc2cc(NC(=O)c3csc(N4CCOCC4)n3)c(N3CCOCC3)cc2O1` [Example 36, N-(2,2-Dimethyl-6-morpholino-2,3-dihydrobenzofuran-5-yl)-2-morpholinothiazole-4-carboxamide], the Ki was 3.8 nM.

Take `CC1(C)Cc2cc(NC(=O)c3coc(N4CCOCC4)n3)c(N3CCOCC3)cc2O1` [Example 37, N-(2,2-Dimethyl-6-morpholino-2,3-dihydrobenzofuran-5-yl)-2-morpholinooxazole-4-carboxamide]: the Ki is 5.2 nM.

On to `CC1(C)Cc2cc(NC(=O)c3coc(C4CC4)n3)c(N3CCOCC3)cc2O1` [Example 38, 2-Cyclopropyl-N-(2,2-dimethyl-6-morpholino-2,3-dihydrobenzofuran-5-yl)oxazole-4-carboxamide], for which the Ki is 7.4 nM.

Regarding `CC1(C)Cc2cc(NC(=O)c3cccc4[nH]c(CO)nc34)c(N3CCOCC3)cc2O1` [Example 40, N-(2,2-Dimethyl-6-morpholino-2,3-dihydrobenzofuran-5-yl)-2-(hydroxymethyl)-1H-benzo[d]imidazole-4-carboxamide], the inhibition constant Ki was found to be 28 nM.

For the compound `CC1(C)Cc2cc(NC(=O)c3coc(C(C)(C)C)n3)c(N3CCOCC3)cc2O1` [Example 41, 2-(tert-Butyl)-N-(2,2-dimethyl-6-morpholino-2,3-dihydrobenzofuran-5-yl)oxazole-4-carboxamide], the Ki is 43 nM.

On to `CC1(C)Cc2cc(NC(=O)c3cscn3)c(N3CCOCC3)cc2O1` [Example 42, N-(2,2-Dimethyl-6-morpholino-2,3-dihydrobenzofuran-5-yl)thiazole-4-carboxamide], for which the Ki worked out at 98 nM.

Take `CCc1cnc(C(=O)Nc2cc3c(cc2N2CCOCC2)OC(C)(C)C3)[nH]1` [Example 43, N-(2,2-Dimethyl-6-morpholino-2,3-dihydrobenzofuran-5-yl)-5-ethyl-1H-imidazole-2-carboxamide]: the Ki amounted to 110 nM.

Regarding `Cc1cnc(C(=O)Nc2cc3c(cc2N2CCOCC2)OC(C)(C)C3)[nH]1` [Example 44, N-(2,2-Dimethyl-6-morpholino-2,3-dihydrobenzofuran-5-yl)-5-methyl-1H-imidazole-2-carboxamide], the inhibitory constant (Ki) is 290 nM.

On to `CC1(C)Cc2cc(NC(=O)c3n[nH]c4cccnc34)c(N3CCOCC3)cc2O1` [Example 45, N-(2,2-Dimethyl-6-morpholino-2,3-dihydrobenzofuran-5-yl)-1H-pyrazolo[4,3-b]pyridine-3-carboxamide], for which the inhibition constant Ki was 490 nM.

As to `CC1(C)Cc2cc(NC(=O)c3ccncn3)c(N3CCOCC3)cc2O1` [Example 46, N-(2,2-Dimethyl-6-morpholino-2,3-dihydrobenzofuran-5-yl)pyrimidine-4-carboxamide], the Ki amounted to 140 nM.

As to `CC1(C)Cc2cc(NC(=O)c3ncc(C(C)(C)C)[nH]3)c(N3CCOCC3)cc2O1` [Example 47, 5-(tert-Butyl)-N-(2,2-dimethyl-6-morpholino-2,3-dihydrobenzofuran-5-yl)-1H-imidazole-2-carboxamide], the inhibitory constant (Ki) was 200 nM.

As to `CC1(C)Cc2cc(NC(=O)c3ccco3)c(N3CCOCC3)cc2O1` [Example 48, N-(2,2-Dimethyl-6-morpholino-2,3-dihydrobenzofuran-5-yl)furan-2-carboxamide], the inhibition constant (Ki) was determined as 220 nM.

As to `CC(=O)Nc1cc(-n2ccc(C(=O)Nc3cc4c(cc3N3CCOCC3)OC(C)(C)C4)n2)ccn1` [Example 49, 1-(2-Acetamido-4-pyridyl)-N-(2,2-dimethyl-6-morpholino-3H-benzofuran-5-yl)pyrazole-3-carboxamide], the Ki was 7.6 nM.

As for `Cn1nnc2c(C(=O)Nc3cc4c(cc3N3CCOCC3)OC(C)(C)C4)cncc21` [Example 50, N-(2,2-Dimethyl-6-morpholino-3H-benzofuran-5-yl)-3-methyl-triazolo[4,5-c]pyridine-7-carboxamide], the Ki was 78 nM.

As to `Cc1nc(C(=O)Nc2cc3c(cc2N2CCOCC2)OC(C)(C)C3)co1` [Example 51, N-(2,2-Dimethyl-6-morpholino-3H-benzofuran-5-yl)-2-methyl-oxazole-4-carboxamide], the Ki is 18 nM.

With `Cn1nnc2c(C(=O)Nc3cc4c(cc3N3CCOCC3)OC(C)(CO)C4)cncc21` (stereo not shown) [Example 52, N-(2-(Hydroxymethyl)-2-methyl-6-morpholino-2,3-dihydrobenzofuran-5-yl)-3-methyl-3H-[1,2,3]triazolo[4,5-c]pyridine-7-carboxamide], the Ki stood at 100 nM.

As for `CCn1nnc2c(C(=O)Nc3cc4c(cc3N3CCOCC3)OC(C)(C)C4)cncc21` [Example 53, N-(2,2-Dimethyl-6-morpholino-3H-benzofuran-5-yl)-3-ethyl-triazolo[4,5-c]pyridine-7-carboxamide], the Ki was 220 nM.

As for `CC1(C)COc2cc(C(=O)Nc3cc4c(cc3N3CCOCC3)OC(C)(CO)C4)nn2C1` (stereo not shown) [Example 54, N-[2-(Hydroxymethyl)-2-methyl-6-morpholino-3H-benzofuran-5-yl]-6,6-dimethyl-5,7-dihydropyrazolo[5,1-b][1,3]oxazine-2-carboxamide], the Ki turned out to be 810 nM.

As to `CC1COc2c(C(=O)Nc3cc4c(cc3N3CCOCC3)OC(C)(CO)C4)cnn2C1` (stereo not shown) [Example 55, N-[2-(Hydroxymethyl)-2-methyl-6-morpholino-3H-benzofuran-5-yl]-6-methyl-6,7-dihydro-5H-pyrazolo[5,1-b][1,3]oxazine-3-carboxamide], the Ki turned out to be 390 nM.

Turning to `COc1ccc(-n2ccc(C(=O)Nc3cc4c(cc3N3CCOCC3)OC(C)(C)C4)n2)cn1` [Example 58, N-(2,2-Dimethyl-6-morpholino-3H-benzofuran-5-yl)-1-(6-methoxy-3-pyridyl)pyrazole-3-carboxamide], the inhibition constant Ki came out at 29 nM.

For `CC1(C)Cc2cc(NC(=O)c3ccn(-c4ccnc(CO)c4)n3)c(N3CCOCC3)cc2O1` [Example 59, N-(2,2-Dimethyl-6-morpholino-3H-benzofuran-5-yl)-1-[2-(hydroxymethyl)-4-pyridyl]pyrazole-3-carboxamide], the inhibition constant (Ki) is 1.6 nM.

As to `COc1cc(-n2ccc(C(=O)Nc3cc4c(cc3N3CCOCC3)OC(C)(C)C4)n2)ccn1` [Example 60, N-(2,2-Dimethyl-6-morpholino-3H-benzofuran-5-yl)-1-(2-methoxy-4-pyridyl)pyrazole-3-carboxamide], the Ki amounted to 8.2 nM.

With `CC1(C)Cc2cc(NC(=O)c3ccn(-c4ccnc(C(C)(C)O)c4)n3)c(N3CCOCC3)cc2O1` [Example 61, N-(2,2-Dimethyl-6-morpholino-3H-benzofuran-5-yl)-1-[2-(1-hydroxy-1-methyl-ethyl)-4-pyridyl]pyrazole-3-carboxamide], the Ki turned out to be 4.6 nM.

For the compound `CC1(C)Cc2cc(NC(=O)c3ccn(-c4ccnc(NCC(F)(F)F)c4)n3)c(N3CCOCC3)cc2O1` [Example 62, N-(2,2-Dimethyl-6-morpholino-3H-benzofuran-5-yl)-1-[2-(2,2,2-trifluoroethylamino)-4-pyridyl]pyrazole-3-carboxamide], the Ki is 17 nM.
